Experimental data: US10195166B2, “Methods for treating hepatitis C virus infectious disease” (priority 2013, dated 2019)
No end group written: not given here.

What was measured:
Type in all cases: cell-based, hepatitis C virus
[1] = test system: Huh7 cells infected with HCVcc; assay: HCV RNA level after direct treatment with cell permeable GRIM19 domain peptides; settings: 10 μM peptide for 48 hours (FIG. 12)
Experimental: In order to confirm whether an anti-HCV effect is shown when penetrating each domain itself of GRIM19 protein into cells, the effect was evaluated in in vitro HCV infection model by synthesizing peptides in which cell permeable peptide sequences (CP) bind to N-terminal of each domain of GRIM19 of Example 8. The sequences of each domain of GRIM19 comprising the synthesized cell permeable peptide sequences (CP) were analyzed in Table 4 below.
After treating Huh7 cells infected with HCVcc through in vitro HCV infection model of Example 2 with 10 μM of CP-GRIM19-D1, CP-GRIM19-D2, and CP-GRIM19-D3 for 48 hours, the level of RNA in HCV was examined.

[2] = test system: HCV; assay: HCV RNA copies, GRIM19 overexpression combined with metformin; settings: transfection with pcDNA3_GRIM19 plus metformin (FIG. 8)
From the text: In this regard, a change in HCV RNA copies was examined in the case of administration of metformin (Sigama Aldrich, Cat. D150959), an activator of AMP-activated protein kinase (AMPK) inhibiting the activity of ACC, in combination.

[3] = test system: in vitro HCV infection model (HCVcc infected Huh7 cells); assay: HCV RNA level after transfection with expression vectors for GRIM19 domains in in vitro HCV infection model; settings: overexpression of the domain by transfection with expression vector (FIG. 11b)
Experimental: An expression vector which can express the […], GRIM19-D2 (aa 37-72), GRIM19-D3 (aa 73-101), and GRIM19-D4 (aa 102-144) above was prepared, and the effect of each domain was evaluated in in vitro HCV infection model in Example 2.
In order to prepare the expression vector, the gene for each domain of GRIM19 was obtained through PCR with template of the vector expressing pcDNA3_GRIM19, and each domain was subcloned into pCMV-3Tag-3A vector (Agilent Technologies, Inc.) using restriction sites of restriction enzymes EcoRI and SalI. For GRIM19-D2, GRIM19-D3, and GRIM19-D4 to be expressed in the vector, a start codon was added prior to 5′ of the actually corresponding gene sequence of GRIM19. Accordingly, for each protein fragment, methionine was added prior to the N terminus of the actually corresponding amino acid sequence of GRIM19.

[4] = test system: HCVcc infected Huh7 cells; assay: HCV replication, GRIM19 overexpression combined with DGAT-1 inhibitor; settings: 40 μM compound of Formula 1 simultaneously with GRIM19 overexpression in HCVcc infected Huh7 cells (FIG. 9)
[5] = test system: HCVcc infected Huh7 cells; assay: HCV RNA copies, GRIM19 overexpression and/or sofosbuvir in in vitro HCV infection model; settings: transfection with pcDNA3_GRIM19 plus sofosbuvir (FIG. 10)
Experimental: HCVcc infected Huh7 cells were transfected with pcDNA3_GRIM19 using FUGENE HD, as in Example 3 above, the cells were treated with sofosbuvir (PharmaBLOCK R&D Co. Ltd.) (Formula 2):
[drawing 6] a compound inhibiting RNA-dependent RNA polymerase activity of HCV, or the cells were transfected with pcDNA3_GRIM19 and treated with sofosbuvir. Then, a change in HCV RNA copies was evaluated.

Molecule	level of HCV RNA [1]	level of HCV RNA [3]	further results
CP-GRIM19-D1: synthesized peptide, cell permeable peptide sequence (CP) at N-terminal of GRIM19 domain 1, SEQ ID NO: 14 (RRRRRRRRRMAASKVKQDMPPPGGYGPIDYKRNLPRRGLSGYSML; CP-GRIM19-D1)	significantly decreased	–	–
CN(C)C(=N)N=C(N)N [metformin]	–	–	effect of the combination on HCV [2]: synergistic effect of inhibiting HCV; increase in HCV RNA compared with treatment with metformin alone [2]: considerably lower
GRIM19-D4: GRIM19 protein fragment aa 102-144 (SEQ ID NO: 12), expressed from pCMV-3Tag-3A vector (MDWKVGESVFHTTRWVPPLIGELYGLRTTEEALHASHGFMWYT; also: 3Tag vector tags (pCMV-3Tag-3A))	–	significantly decreased	–
O=C(Nc1ccccc1)Nc1ccc(-c2ccc(C(=O)[C@@H]3CCC[C@H]3C(=O)O)cc2)cc1 [A922500]	–	–	effect of the combination on HCV replication [4]: synergistic effect of inhibiting HCV replication
GRIM19-D2: GRIM19 protein fragment aa 37-72 (SEQ ID NO: 8), expressed from pCMV-3Tag-3A vector (MAIGIGTLIYGHWSIMKWNRERRRLQIEDFEARIALL; also: 3Tag vector tags, position not given here)	–	significantly decreased	–
CP-GRIM19-D2: synthesized peptide, cell permeable peptide sequence (CP) at N-terminal of GRIM19 domain 2, SEQ ID NO: 15 (RRRRRRRRRAIGIGTLIYGHWSIMKWNRERRRLQIEDFEARIALL; CP-GRIM19-D2)	significantly decreased	–	–
CP-GRIM19-D3: synthesized peptide, cell permeable peptide sequence (CP) at N-terminal of GRIM19 domain 3, SEQ ID NO: 16 (RRRRRRRRRPLLQAETDRRTLQMLRENLEEEAIIMKDV; CP-GRIM19-D3)	significantly decreased	–	–
GRIM19-D1: GRIM19 protein fragment aa 1-36 (SEQ ID NO: 6), expressed from pCMV-3Tag-3A vector (MAASKVKQDMPPPGGYGPIDYKRNLPRRGLSGYSML; also: 3Tag vector tags (pCMV-3Tag-3A))	–	significantly decreased	–
CC(C)OC(=O)[C@H](C)N[P@](=O)(OC[C@H]1O[C@@H](n2ccc(=O)[nH]c2=O)[C@](C)(F)[C@@H]1O)Oc1ccccc1 [sofosbuvir]	–	–	effect of the combination on HCV [5]: synergistic effect of inhibiting HCV; lower increase in HCV RNA than treatment with sofosbuvir alone [5]: ≥ 45%
GRIM19-D3: GRIM19 protein fragment aa 73-101 (SEQ ID NO: 10), expressed from pCMV-3Tag-3A vector (MPLLQAETDRRTLQMLRENLEEEAIIMKDV; also: 3Tag vector tags, position not given here)	–	significantly decreased	–
